Laboratory results reported in PubChem BioAssay AID2525 (Broad Institute, 2010).
Activity calls are given as the source filed them.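 The calls were made as follows: active = EC50 at most tenfold above the top concentration tested; inconclusive = flat fit with activity between 30% and 70%, or invalid fit; inactive = EC50 beyond tenfold above the top concentration.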

Tested on: S. cerevisiae SKY197-pL101 polyadenylation reporter, beta-gal luminescence, 9 h
Test: mRNA 3' processing disruption, beta-gal signal increase – luminescence, S. cerevisiae SKY197-pL101, dose response (AID 2525)

Q: How did the EC50 turn out when `Nc1ncnc2c1ncn2C1OC(CO)CC1O` (stereo unspecified) was run?
A: The EC50 was > 50 µM (inactive).
